Test results published in US4059694A, “Cardiotonic agent” (The University of Hawaii, priority 1976, dated 1977).
Like-named read-outs stand apart in the source and are kept apart here.

How the values were obtained:
Isoelectric focusing = assay type: physicochemical; conditions: doubly purified material
Description: For the purpose of obtaining electrophoretic and amino acid analysis the anthopleurin-A obtained in Example 1 was rechromatographed on CM Sephadex C-25, Sephadex G-50 and G-10 according to the process set forth in Example 1, Steps c, d and e, respectively. The doubly purified material was subject to electrophoretic analysis using commercially available pre-cast 12% acrylamide gels and matched buffer systems obtained from Bio.Rad Laboratories, 32nd and Griffin, Richmond, California.
Isoelectric focusing gives the isoelectric point at a pH = 8.2. Disc gel electrophoresis with 12% polyacrylamide gel at pH 3.6 gave an Rf value of 0.46 versus methyl green tracking dye. […] Sodium dodecyl sulfate (SDS) disc gel electrophoresis using a 10% gel indicated a m.w. of about 4,700 after incubation with dithioerythritol, using RNase A and pancreatic trypsin inhibitor (PTI) for comparison. The molecular weight is so low that these values are only approximate. AP-A was determined to be a peptide on the basis of positive ninhydrin spots obtained when a hydrolysate of AP-A was chromatographed.

blood pressure = test: Effect on blood pressure; conditions: in vivo
[1] = system: catechol-O-methyltransferase; test: Enzyme inhibition, catechol-O-methyltransferase; assay type: biochemical; conditions: 3 × 10^-8 M
Solubility in water = assay type: physicochemical; conditions: deionized water
Na, K-ATPase = test: Enzyme inhibition, Na, K-ATPase; assay type: biochemical; conditions: 3 × 10^-8 M
mice = test: Acute toxicity (LD50) in mice, i.p.; assay type: in vivo
Procedure: (§1) Anthopleurin-A can be further characterized by its pharmacological characteristics. […] The LD50 in mice (i.p.) is about 0.2-0.3 mg./kg.

in situ heart [2] = test: Cardiotonic effect in the in situ heart, cat; assay type: in vivo
[3] = Dependence of drug action and toxicity on external Ca++ and K+, compared with ouabain
[4] = system: cyclic 3', 5'-nucleotide phosphodiesterase; test: Enzyme inhibition, cyclic 3', 5'-nucleotide phosphodiesterase; assay type: biochemical; conditions: 3 × 10^-8 M
isolated heart [5] = test: Cardiotonic effect in the isolated heart, rabbit; assay type: cell-based
Description: (§2) This cardiac stimulation is observed in animals by measuring the in vitro contractile effect on isolated heart muscle and in vivo in anesthetized dogs fitted with a cardiac strain gauge.

isolated heart [6] = test: Cardiotonic effect in the isolated heart, dog; assay type: cell-based
Description: as §2

isolated heart [7] = test: Cardiotonic effect in the isolated heart, guinea pig; assay type: cell-based
Description: as §2

isolated heart [8] = test: Cardiotonic effect in the isolated heart, cat; assay type: cell-based
Description: as §2

monoamine oxidase = test: Enzyme inhibition, monoamine oxidase; assay type: biochemical; conditions: 3 × 10^-8 M
[9] = system: isolated guinea pig atria; test: Positive inotropic effect on isolated guinea pig atria; assay type: cell-based
Procedure: as §1

[10] = Stability of anthopleurin-A on storage and in solution; assay type: physicochemical
isolated vascular muscle = test: Mechanical effect on the isolated vascular muscle; assay type: cell-based
isolated heart [11] = test: Cardiotonic effect in the isolated heart, rat; assay type: cell-based
Description: as §2

atria = test: Inotropic effect on atria under stressful conditions; assay type: cell-based; conditions: severe temperature stress, anoxia and low Ca^++ concentrations
in situ heart [12] = test: Cardiotonic effect in the in situ heart, dog; assay type: in vivo
Description: as §2

heart rate = test: Chronotropic effect (heart rate)

anthopleurin-A
isoelectric point (Isoelectric focusing): 8.2 pH | effect on blood pressure (blood pressure): negligible effect | effect on blood pressure (blood pressure; listed as AP-A): does not have any demonstrable effect | inhibition of catechol-O-methyltransferase [1]: none of the following enzymes is inhibited | solubility (Solubility in water): very soluble | inhibition of Na, K-ATPase (Na, K-ATPase): none of the following enzymes is inhibited | LD50 (mice): 0.2 to 0.3 mg/kg | cardiotonic effect in the in situ heart (in situ heart [2]): effective cardiotonic agent | effect of lowered external K^+ on drug toxicity [3]: does not alter drug toxicity | sensitivity to Ca^++ concentration [3]: not nearly as sensitive | inhibition of cyclic 3', 5'-nucleotide phosphodiesterase [4]: none of the following enzymes is inhibited | cardiotonic effect in the isolated heart (isolated heart [5]): effective cardiotonic agent | cardiotonic effect in the isolated heart (isolated heart [6]): effective cardiotonic agent | cardiotonic effect in the isolated heart (isolated heart [7]): effective cardiotonic agent | cardiotonic effect in the isolated heart (isolated heart [8]): effective cardiotonic agent | inhibition of monoamine oxidase (monoamine oxidase): none of the following enzymes is inhibited | ED50, positive inotropic effect ([9]; isolated guinea pig atria): 1.1 nM | potency relative to ouabain in positive inotropic effect ([9]; times as potent as ouabain): 200-1000 x | time stable in solution ([10]; as fraction G, 20.5° C., 10^-7 M solutions, pH 4.55-7.80): at least 24 hours | loss of cardiotonic activity ([10]; as fraction G, pH above 11): about 90% | storage stability ([10]; kept at -20° C. for a year as lyophilized fraction C or lyophilized fraction G): no signs of deterioration | stability versus pH ([10]; neutral and lower pH values): relatively stable | mechanical effect on the isolated vascular muscle / vascular smooth muscle (isolated vascular muscle): no demonostrable mechanical effect | mechanical effect on the isolated vascular muscle / vascular smooth muscle (isolated vascular muscle; listed as AP-A): does not have any demonstrable effect | cardiotonic effect in the isolated heart (isolated heart [11]): effective cardiotonic agent | inotropic effect on atria under stress (atria): positive inotropic effect | cardiotonic effect in the in situ heart (in situ heart [12]): effective cardiotonic agent | chronotropic effect / effect on heart rate (heart rate): does not show any chronotropic effect | chronotropic effect / effect on heart rate (heart rate; listed as AP-A): does not have any demonstrable effect
